Test results taken from the supplement of paper PMC10307832.

Legend:
Test in all cases: relative viability (nuclei count vs DMSO), 5 days (fraction); higher = more cells survive
[1] = compound: CCN1C(=O)C2=CC(=C(N=C2N(C1=O)C3CC3)N)C(=O)N + Nc1nc2[nH]cc(CCc3ccc(C(=O)N[C@@H](CCC(=O)O)C(=O)O)cc3)c2c(=O)[nH]1 [Pemetrexed] (partner 0.2 µM)
Procedure, shortened: (§1)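 Cells from lung cancer lines were seeded into 1536-well plates and, one day later, dosed by pin tool. Treatments were either a single drug or a fixed dose of an anchor drug with five library-drug doses (not always all listed) in √10 steps. After 5 days, nuclei were stained in a one-step fixation (final 0.05% Triton X-100, 1% formaldehyde, 1 ug/ml Hoechst) and counted on 4× images, and relative viability is the treated-to-vehicle nuclei ratio, as the median of duplicate plates.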

[2] = compound: CCN1C(=O)C2=CC(=C(N=C2N(C1=O)C3CC3)N)C(=O)N + CS(=O)(=O)CCNCc1ccc(-c2ccc3ncnc(Nc4ccc(OCc5cccc(F)c5)c(Cl)c4)c3c2)o1 [Lapatinib] (partner 2 µM)
Procedure, shortened: as §1

[3] = compound: CCN1C(=O)C2=CC(=C(N=C2N(C1=O)C3CC3)N)C(=O)N + O=C(c1cc(Cc2n[nH]c(=O)c3ccccc23)ccc1F)N1CCN(C(=O)C2CC2)CC1 [Olaparib] (partner 8 µM)
Procedure, shortened: as §1

[4] = compound: CCN1C(=O)C2=CC(=C(N=C2N(C1=O)C3CC3)N)C(=O)N + N=C(N)NC(=N)NCCc1ccccc1 [Phenformin] (partner 250 µM)
Procedure, shortened: as §1

[5] = compound: CCN1C(=O)C2=CC(=C(N=C2N(C1=O)C3CC3)N)C(=O)N + CC(=O)c1c(C)c2cnc(Nc3ccc(N4CCNCC4)cn3)nc2n(C2CCCC2)c1=O [Palbociclib] (partner 0.5 µM)
Procedure, shortened: as §1

Row | Cell Line | relative viability ([1]; first compound 0.253 µM) | relative viability ([1]; first compound 0.8 µM) | relative viability ([1]; first compound 2.53 µM) | relative viability ([1]; first compound 8 µM) | relative viability ([2]; first compound 0.253 µM) | relative viability ([2]; first compound 0.8 µM) | relative viability ([2]; first compound 2.53 µM) | relative viability ([2]; first compound 8 µM) | relative viability ([3]; first compound 0.253 µM) | relative viability ([3]; first compound 0.8 µM) | relative viability ([3]; first compound 2.53 µM) | relative viability ([3]; first compound 8 µM) | relative viability ([4]; first compound 0.253 µM) | relative viability ([4]; first compound 0.8 µM) | relative viability ([4]; first compound 2.53 µM) | relative viability ([4]; first compound 8 µM) | relative viability ([5]; first compound 0.253 µM) | relative viability ([5]; first compound 0.8 µM) | relative viability ([5]; first compound 2.53 µM) | relative viability ([5]; first compound 8 µM)
1 | NCI-H1755 | 0.525 | 0.412 | 0.418 | 0.471 | 0.999 | 1.09 | 0.779 | 1.02 | 0.908 | 0.872 | 0.831 | 0.843 | 0.647 | 0.607 | 0.381 | 0.665 | 0.443 | 0.453 | 0.436 | 0.44
2 | NCI-H1792 | 0.733 | 0.77 | 0.911 | 0.909 | 0.993 | 0.859 | 1.1 | 0.769 | 0.44 | 0.387 | 0.292 | 0.667 | 0.224 | 0.237 | 0.367 | 0.352 | 0.674 | 0.631 | 0.668 | 0.653
3 | NCI-H1793 | 0.915 | 0.925 | 0.805 | 0.861 | 0.635 | 0.819 |  | 0.636 | 0.921 | 0.731 | 0.851 | 0.875 |  | 0.38 | 0.352 | 0.408 | 0.258 | 0.322 | 0.27 | 0.3
4 | NCI-H1915 | 0.5 | 0.507 | 0.493 | 0.509 | 0.952 | 0.942 | 0.974 | 0.922 | 0.271 | 0.284 | 0.261 | 0.286 | 0.367 | 0.362 | 0.376 | 0.36 | 0.531 | 0.508 | 0.493 | 0.526
5 | NCI-H1944 | 0.64 | 0.589 | 0.615 | 0.624 | 0.873 | 0.679 | 0.818 | 0.756 | 0.4 | 0.411 | 0.374 | 0.437 | 0.255 | 0.218 | 0.208 | 0.204 | 0.421 | 0.324 | 0.33 | 0.365
6 | NCI-H1975 | 0.294 | 0.292 | 0.319 | 0.288 | 0.841 | 0.844 | 0.868 | 0.91 | 0.747 | 0.82 | 0.734 | 0.785 | 0.416 | 0.417 | 0.406 | 0.375 | 0.564 | 0.623 | 0.602 | 0.489
7 | NCI-H1993 | 0.607 | 0.525 | 0.607 | 0.541 | 0.782 | 0.817 | 0.815 | 0.823 | 1.57 | 0.75 | 1.05 | 1.08 | 0.526 | 0.457 | 0.524 | 0.438 | 0.414 | 0.561 | 0.651 | 0.676
8 | NCI-H2009 | 1.1 | 1.09 | 1 | 0.966 | 0.93 | 1.23 | 0.892 | 0.847 | 0.688 | 0.665 | 0.667 | 0.71 | 0.481 | 0.485 | 0.453 | 0.453 | 0.208 | 0.184 | 0.21 | 0.186
9 | NCI-H2023 | 0.198 | 0.182 | 0.222 | 0.247 | 0.51 | 0.813 | 0.777 | 0.776 | 0.463 | 0.477 | 0.451 | 0.487 | 0.411 | 0.42 | 0.357 | 0.388 | 0.438 | 0.39 | 0.313 | 0.382
10 | NCI-H2085 | 0.914 | 0.847 | 0.987 | 0.851 | 0.721 | 0.782 | 0.743 | 0.68 | 0.835 | 0.815 | 0.72 | 0.814 | 0.737 | 0.666 | 0.752 | 0.684 | 0.479 | 0.446 | 0.441 | 0.445
11 | NCI-H2087 | 0.676 | 0.629 | 0.677 | 0.608 | 0.811 | 1.14 | 1.21 | 0.872 | 0.638 | 0.82 | 0.643 | 0.585 | 0.439 | 0.466 | 0.443 | 0.398 | 0.216 | 0.238 | 0.275 | 0.236
12 | NCI-H2126 | 0.682 | 0.671 | 0.674 | 0.674 | 0.787 | 0.778 | 0.761 | 0.749 | 0.876 | 0.932 | 0.887 | 0.939 | 0.553 | 0.512 | 0.522 | 0.506 | 0.332 | 0.345 | 0.349 | 0.364
13 | NCI-H2170 | 0.271 | 0.289 | 0.28 | 0.251 | 0.253 | 0.257 | 0.263 | 0.255 | 0.573 | 0.646 | 0.565 | 0.601 | 0.42 | 0.444 | 0.418 | 0.445 | 0.385 | 0.389 | 0.395 | 0.363
14 | NCI-H2228 | 0.35 | 0.464 | 0.336 | 0.372 | 0.893 | 1.1 | 1.26 | 1.26 | 0.827 | 0.723 | 0.577 | 0.282 | 0.405 | 0.372 | 0.331 | 0.395 | 0.73 | 0.683 | 0.866 | 0.811
15 | NCI-H2347 | 0.458 | 0.442 | 0.421 | 0.447 | 0.94 | 1.01 | 0.985 | 0.937 | 0.576 | 0.612 | 0.55 | 0.518 | 0.373 | 0.424 | 0.547 | 0.418 | 0.458 | 0.489 | 0.445 | 0.492
16 | NCI-H2405 | 1.1 |  | 1.14 | 1.03 | 1.21 | 1.16 | 1.08 | 1.01 | 0.9 |  | 0.904 | 0.91 | 0.379 | 0.388 | 0.381 | 0.395 | 0.523 |  | 0.554 | 0.527
